Results published in PMC10797614, “MYC-Targeting Inhibitors Generated from a Stereodiversified Bicyclic Peptide Library” (Journal of the American Chemical Society, 2024).
*1 amine or outer side, *2 acyl side, *3 side chain or, on linkers, in order; H or OH if unused. Where a SMILES comes first, the peptide text is derived from it. Bridges are numbered along the chain shown (N, C = ends). X1 = O=C([C@@H]1C[C@H](C=CCO[*:3])C[C@@H]1C=CCO[*:1])[*:2]

Key:
[1] = tested on: MYC transcription activity (HALLAMRK MYC TARGETS V1 gene set); assay: RNA-seq, differential expression (DESeq) and GSEA in U87 cells; format: cell-based, human; settings: treated vs vehicle, p-value < 0.001, FDR 0.005
Text: To test whether NT-B2R directly affected MYC activity, we performed RNA-seq on the U87 cells and evaluated the differentially expressed genes using DESeq. […] A caveat here is that a global shift of transcription activities will not be observable by this analysis, due to the embedded normalization procedure.[38] Nevertheless, gene set enrichment analysis (GSEA) results highlighted that MYC target gene sets were enriched with high statistical significance and low false discovery probabilities, supporting that MYC was NT-B2R’s main target (Figure 4G).
U87 cells were seeded in six 100x20 mm cell culture dishes at 1000 k/dish and incubated for 24h in full DMEM medium containing 10% FBS and 1% PS. […]
Total RNA of the harvested cells was extracted and purified using the RNeasy Micro Kit (QIAGEN). Following the extraction, RNA integrity and quantitation were assessed using the RNA Nano 6000 Assay Kit on the Bioanalyzer 2100 system (Agilent Technologies). […] The obtained six library samples were pooled together and sequenced on a NovaSeq 6000 (Illumina) to reach approximately 30M 150bp pair-end reads per sample.
The obtained sequencing data was preprocessed using TrimGalore, aligned using STAR, and counted using HTSeq. […]

[2] = free peptide; liposomes therefore used as delivery vehicles
[3] = tested on: U87 cells; assay: Cell viability test (resazurin), U87; format: cell-based, human; settings: peptide-loaded DOTAP/DOPE liposomes vs empty liposomes, 48 hours, resazurin fluorescence
Procedure: Liposome loading capacity quantification
200 μL of the liposome solution (4 mg/mL) was dried under vacuum and extracted with 50 μL of DMSO. The obtained solution was analyzed on a reverse-phase HPLC and the corresponding peptide peak was identified by mass spectrometry. The peptide concentration was then determined by comparing the peak area to that of a standard solution. The loading capacities were calculated accordingly.
Cells were seeded in a 96-well plate at 4 k/well and incubated overnight. Afterward, the cells were washed with complete media and treated with varying concentrations of peptide-loaded liposome or empty liposome. The final media volume was 200 μL in each well. The cells were treated for 48 hours and then washed with fresh media to remove residue peptides or liposomes. For a single well, Resazurin (10 μg/mL in PBS) mixed with 200 μL of fresh cell media was added, and the plate was incubated at 37 °C for 3 hours. The 96-well plate was shaken for 15 min on an orbital mixer in dark, and the fluorescence (540 nm excitation, 590 nm emission) intensities were read by a […]
U87 cells were detached by trypsin and resuspended in 5 mL of PBS(1x). […] The protein concentrations were determined by BCA assay.
To prepare the sample for the cellular thermal shift assay, the quantified cell lysate was adjusted to a final concentration of 1.481 mg/mL with lysis buffer. […]

CC(C)C[C@@H]1NC(=O)[C@H](CCCNC(=N)N)NC(=O)[C@@H]2CCCCNC(=O)[C@@H]3C[C@H](C=CCOC(=O)CC[C@@H](C(N)=O)NC1=O)C[C@@H]3C=CCOC(=O)CC[C@H](N)C(=O)N[C@@H](Cc1c[nH]c3ccccc13)C(=O)N1CCC[C@H]1C(=O)N[C@@H](Cc1c[nH]cn1)C(=O)N[C@@H](CCCNC(=N)N)C(=O)N2 [NT-B2R] (H-EWPHRKRLE-NH2; linker 1-6-9 via X1; N-terminus and C-terminus assumed)
GSEA normalized enrichment score (NES), HALLAMRK MYC TARGETS V1 [1]: −5.955 | cell permeability (in words) [2]: not cell-permeable | metabolic activity and proliferation (viability), U87 [3]: decreased metabolic activity and proliferation
